Measurements taken from ChEMBL document CHEMBL1201862, “PubChem BioAssay data set” (2004).
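The compound was tested at five concentrations on cells cultured in 96-well plates, with a 48-hour exposure period. The concentration for 50% growth inhibition is given as GI50.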 Activity calls are given as the source filed them. No stated cut-off is given here; in the data, active = GI50 up to about 1.1 µM and inactive = higher.

Experiments:
Assay in all cases: NCI-60 cell line screen, 48 h
SK-MEL-28 = system: SK-MEL-28
UACC-257 = system: UACC-257
HCC 2998 = system: HCC 2998
HCT-116 = system: HCT-116
PC-3 = system: PC-3
CAKI-1 = system: CAKI-1
786-0 = system: 786-0
SK-MEL-5 = system: SK-MEL-5
SW-620 = system: SW-620
OVCAR-4 = system: OVCAR-4
NCI/ADR-RES = system: NCI/ADR-RES
LOX IMVI = system: LOX IMVI
DU-145 = system: DU-145
SNB-19 = system: SNB-19
MDA-N = system: MDA-N
ACHN = system: ACHN
Hs-578T = system: Hs-578T
A498 = system: A498
K562 = system: K562
RPMI-8226 = system: RPMI-8226

| SMILES | GI50 (SK-MEL-28) | GI50 (UACC-257) | GI50 (HCC 2998) | GI50 (HCT-116) | GI50 (PC-3) | GI50 (CAKI-1) | GI50 (786-0) | GI50 (SK-MEL-5) | GI50 (SW-620) | GI50 (OVCAR-4) | GI50 (NCI/ADR-RES) | GI50 (LOX IMVI) | GI50 (DU-145) | GI50 (SNB-19) | GI50 (MDA-N) | GI50 (ACHN) | GI50 (Hs-578T) | GI50 (A498) | GI50 (K562) | GI50 (RPMI-8226) |
| --- | --- | --- | --- | --- | --- | --- | --- | --- | --- | --- | --- | --- | --- | --- | --- | --- | --- | --- | --- | --- |
| CC1=CC(C)(C)NN1C1=NS(=O)(=O)c2ccccc2N1C | > 100 µM (inactive) | > 100 µM (inactive) | > 100 µM (inactive) | > 100 µM (inactive) | > 100 µM (inactive) | > 100 µM (inactive) | > 100 µM (inactive) | > 100 µM (inactive) | > 100 µM (inactive) | 44.3 µM (inactive) | > 100 µM (inactive) | > 100 µM (inactive) | > 100 µM (inactive) | > 100 µM (inactive) | > 100 µM (inactive) | > 100 µM (inactive) | > 100 µM (inactive) | > 100 µM (inactive) | > 100 µM (inactive) | – |
| CNC1C(OC2C(OC3C(O)C(O)C(O)C(O)C3O)OC(C)C2(O)CO)OC(CO)C(O)C1O.N=C(N)N.NC(=O)O (configuration not stated) | > 100 µM (inactive) | > 100 µM (inactive) | > 100 µM (inactive) | > 100 µM (inactive) | > 100 µM (inactive) | – | > 100 µM (inactive) | > 100 µM (inactive) | > 100 µM (inactive) | > 100 µM (inactive) | > 100 µM (inactive) | > 100 µM (inactive) | > 100 µM (inactive) | > 100 µM (inactive) | > 100 µM (inactive) | > 100 µM (inactive) | > 100 µM (inactive) | > 100 µM (inactive) | > 100 µM (inactive) | > 100 µM (inactive) |
| C[C@]12CC[C@H]3[C@@H](CCC4=CC(=O)CC[C@@H]43)[C@@H]1CC[C@]2(O)C(N)=O | > 100 µM (inactive) | > 100 µM (inactive) | > 100 µM (inactive) | > 100 µM (inactive) | > 100 µM (inactive) | – | > 100 µM (inactive) | > 100 µM (inactive) | > 100 µM (inactive) | > 100 µM (inactive) | > 100 µM (inactive) | > 100 µM (inactive) | > 100 µM (inactive) | > 100 µM (inactive) | > 100 µM (inactive) | > 100 µM (inactive) | > 100 µM (inactive) | > 100 µM (inactive) | > 100 µM (inactive) | > 100 µM (inactive) |
| C/N=C1\OC2=C3C(c4ccccc4)(O/C(=N/C)N(C)C3(c3ccccc3)OC2=O)N1C (configuration not stated) | > 100 µM (inactive) | > 100 µM (inactive) | > 100 µM (inactive) | > 100 µM (inactive) | > 100 µM (inactive) | > 100 µM (inactive) | > 100 µM (inactive) | > 100 µM (inactive) | > 100 µM (inactive) | > 100 µM (inactive) | > 100 µM (inactive) | – | > 100 µM (inactive) | > 100 µM (inactive) | > 100 µM (inactive) | > 100 µM (inactive) | > 100 µM (inactive) | > 100 µM (inactive) | > 100 µM (inactive) | – |
| C/C(=C\c1ccccn1)c1ccccn1 | > 100 µM (inactive) | > 100 µM (inactive) | > 100 µM (inactive) | > 100 µM (inactive) | > 100 µM (inactive) | > 100 µM (inactive) | > 100 µM (inactive) | > 100 µM (inactive) | – | > 100 µM (inactive) | > 100 µM (inactive) | – | > 100 µM (inactive) | > 100 µM (inactive) | > 100 µM (inactive) | > 100 µM (inactive) | > 100 µM (inactive) | > 100 µM (inactive) | > 100 µM (inactive) | > 100 µM (inactive) |
| CC(=O)Oc1cc2c[n+](C)c3c4cc(OC(C)=O)c(OC(C)=O)cc4ccc3c2cc1OC(C)=O | > 100 µM (inactive) | 14.5 µM (inactive) | 9.23 µM (inactive) | 2.3 µM (inactive) | 4.07 µM (inactive) | 4.48 µM (inactive) | 1.59 µM (inactive) | 3.17 µM (inactive) | 3.31 µM (inactive) | – | 2.54 µM (inactive) | 2.82 µM (inactive) | 3.78 µM (inactive) | 2.3 µM (inactive) | 5.51 µM (inactive) | 4.68 µM (inactive) | > 100 µM (inactive) | 7.5 µM (inactive) | – | > 20 µM (inactive) |
| C=C(C)C(=O)O[C@H]1C/C(CO)=C/CCC(=C)C(OC(C)=O)[C@H]2OC(=O)C(=C)[C@H]12 (some centres not stated) | 7.76 µM (inactive) | 10 µM (inactive) | 12.5 µM (inactive) | 3.78 µM (inactive) | 14.6 µM (inactive) | 9.84 µM (inactive) | 3.79 µM (inactive) | 14.7 µM (inactive) | 3.87 µM (inactive) | – | 4.7 µM (inactive) | 4.12 µM (inactive) | 17 µM (inactive) | 28.7 µM (inactive) | 4.49 µM (inactive) | 8.45 µM (inactive) | 12.2 µM (inactive) | 18.7 µM (inactive) | 2.44 µM (inactive) | 1.82 µM (inactive) |
| O=C1CC(c2ccccc2Cl)C2(C(=O)NC(=S)NC2=O)C(c2ccccc2Cl)C1 (configuration not stated) | 49 µM (inactive) | 13.6 µM (inactive) | 27 µM (inactive) | 20 µM (inactive) | 23.6 µM (inactive) | – | 21.5 µM (inactive) | 23.9 µM (inactive) | 35.7 µM (inactive) | 52 µM (inactive) | 68.5 µM (inactive) | 16.9 µM (inactive) | 34 µM (inactive) | 13.2 µM (inactive) | 26.8 µM (inactive) | 24.8 µM (inactive) | 0.465 µM (active) | 21.4 µM (inactive) | 37.2 µM (inactive) | 34.1 µM (inactive) |
| c1ccc(-c2c(-c3cccs3)[nH]c(-c3cccs3)c2-c2ccccn2)nc1 | – | 22 µM (inactive) | 20.2 µM (inactive) | 0.127 µM (active) | 10.6 µM (inactive) | 37.4 µM (inactive) | 22.6 µM (inactive) | 13.7 µM (inactive) | 13 µM (inactive) | – | 17.2 µM (inactive) | 12.4 µM (inactive) | 0.27 µM (active) | 33.5 µM (inactive) | 0.199 µM (active) | 30.5 µM (inactive) | 33.4 µM (inactive) | 27.5 µM (inactive) | 11.7 µM (inactive) | 20 µM (inactive) |
| COC(CN(C=O)[C@@H](c1ccc(Cl)cc1)c1cc2ccccc2o1)OC | 18.5 µM (inactive) | 14 µM (inactive) | – | 15.8 µM (inactive) | 17.3 µM (inactive) | 15.8 µM (inactive) | 23.6 µM (inactive) | 15.5 µM (inactive) | 16.6 µM (inactive) | 19.2 µM (inactive) | 18.3 µM (inactive) | 16.3 µM (inactive) | 14.8 µM (inactive) | 19.4 µM (inactive) | 17.1 µM (inactive) | 20.8 µM (inactive) | 14 µM (inactive) | 18.9 µM (inactive) | 24.4 µM (inactive) | 16 µM (inactive) |
| CC1CCC2c3c([nH]c4ccccc34)C3C(=O)N(C4CCCCC4)C(=O)C3C2C1 (configuration not stated) | 15.1 µM (inactive) | 46.3 µM (inactive) | > 100 µM (inactive) | 11.9 µM (inactive) | 38.3 µM (inactive) | 14 µM (inactive) | 6.85 µM (inactive) | 17.9 µM (inactive) | 67.3 µM (inactive) | – | 36.5 µM (inactive) | 52.5 µM (inactive) | 30 µM (inactive) | 16.4 µM (inactive) | 33.3 µM (inactive) | 13.5 µM (inactive) | 13 µM (inactive) | 22 µM (inactive) | 19 µM (inactive) | 38.2 µM (inactive) |
| C/C(=N\Nc1ccc2ccccc2n1)c1ccccc1O | > 100 µM (inactive) | > 100 µM (inactive) | – | > 100 µM (inactive) | > 100 µM (inactive) | > 100 µM (inactive) | > 37.3 µM (inactive) | > 100 µM (inactive) | > 27.6 µM (inactive) | > 100 µM (inactive) | > 37.5 µM (inactive) | > 100 µM (inactive) | > 100 µM (inactive) | > 63.8 µM (inactive) | > 100 µM (inactive) | > 100 µM (inactive) | > 83.2 µM (inactive) | > 100 µM (inactive) | 7.38 µM (inactive) | 7.23 µM (inactive) |
| CN1c2ccccc2S(=O)(=O)n2c(COc3ccccc3)nnc21 | > 100 µM (inactive) | > 100 µM (inactive) | > 100 µM (inactive) | > 100 µM (inactive) | > 100 µM (inactive) | > 100 µM (inactive) | 64.6 µM (inactive) | > 100 µM (inactive) | > 100 µM (inactive) | > 100 µM (inactive) | > 100 µM (inactive) | > 100 µM (inactive) | > 100 µM (inactive) | > 100 µM (inactive) | > 100 µM (inactive) | > 100 µM (inactive) | > 100 µM (inactive) | 57.8 µM (inactive) | > 100 µM (inactive) | – |
| CCN(CC(O)COc1ccc2c(c1)[n+]([O-])nc(N)[n+]2[O-])C(C)=O (configuration not stated) | > 100 µM (inactive) | > 100 µM (inactive) | – | 97.9 µM (inactive) | > 100 µM (inactive) | > 100 µM (inactive) | > 100 µM (inactive) | 79.1 µM (inactive) | > 100 µM (inactive) | 86.5 µM (inactive) | > 100 µM (inactive) | 76.6 µM (inactive) | > 100 µM (inactive) | > 100 µM (inactive) | > 100 µM (inactive) | > 100 µM (inactive) | 63 µM (inactive) | 62.1 µM (inactive) | 79.6 µM (inactive) | > 100 µM (inactive) |
